# Test results: ChEMBL document CHEMBL1145498, “A systematic interaction map of validated kinase inhibitors with Ser/Thr kinases” (Proc Natl Acad Sci U S A, 2007)
# Columns and labels:
# [1] = target: Calcium/calmodulin-dependent protein kinase type 1G (Homo sapiens) (UniProt Q96NX5)
# [2] = target: Calcium/calmodulin-dependent protein kinase type II subunit alpha (Homo sapiens) (UniProt Q9UQM7)
# [3] = target: Calcium/calmodulin-dependent protein kinase type II subunit delta (Homo sapiens) (UniProt Q13557)
# [4] = target: Calcium/calmodulin-dependent protein kinase type II subunit gamma (Homo sapiens) (UniProt Q13555)
# [5] = target: T1, Calcium/calmodulin-dependent protein kinase type IV (Homo sapiens) (UniProt Q16566)
# T1 sequence (whole entry): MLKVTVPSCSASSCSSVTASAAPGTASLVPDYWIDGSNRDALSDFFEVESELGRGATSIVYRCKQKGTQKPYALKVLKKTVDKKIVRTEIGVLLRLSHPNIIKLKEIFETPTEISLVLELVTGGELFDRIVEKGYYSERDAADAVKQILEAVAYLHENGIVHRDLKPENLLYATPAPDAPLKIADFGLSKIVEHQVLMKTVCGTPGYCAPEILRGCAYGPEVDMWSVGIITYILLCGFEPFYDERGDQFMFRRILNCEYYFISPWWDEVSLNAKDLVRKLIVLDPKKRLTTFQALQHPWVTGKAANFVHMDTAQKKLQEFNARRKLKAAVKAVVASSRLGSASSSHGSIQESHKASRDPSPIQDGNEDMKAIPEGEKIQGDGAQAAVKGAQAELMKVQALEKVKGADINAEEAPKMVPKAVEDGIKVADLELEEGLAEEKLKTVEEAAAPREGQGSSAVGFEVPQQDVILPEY
# [6] = target: Serine/threonine-protein kinase Chk2 (Homo sapiens, UniProt O96017)
# Chain of Serine/threonine-protein kinase Chk2 (O96017 whole entry): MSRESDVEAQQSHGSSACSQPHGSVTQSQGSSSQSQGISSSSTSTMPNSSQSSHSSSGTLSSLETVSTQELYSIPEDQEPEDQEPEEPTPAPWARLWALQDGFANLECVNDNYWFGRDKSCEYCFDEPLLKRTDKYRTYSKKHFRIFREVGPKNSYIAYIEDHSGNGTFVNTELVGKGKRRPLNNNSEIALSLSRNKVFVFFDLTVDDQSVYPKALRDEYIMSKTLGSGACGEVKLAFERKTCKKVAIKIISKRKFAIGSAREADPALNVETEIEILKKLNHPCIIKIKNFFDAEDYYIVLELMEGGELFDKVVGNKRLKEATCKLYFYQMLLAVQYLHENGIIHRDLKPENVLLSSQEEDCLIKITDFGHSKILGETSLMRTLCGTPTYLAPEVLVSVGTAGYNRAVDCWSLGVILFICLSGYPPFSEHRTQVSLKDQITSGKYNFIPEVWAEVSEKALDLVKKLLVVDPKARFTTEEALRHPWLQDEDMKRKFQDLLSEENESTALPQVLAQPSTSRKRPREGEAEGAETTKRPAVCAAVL
# [7] = target: T2, Myotonin-protein kinase (Homo sapiens) (UniProt Q09013)
# T2 sequence (whole entry): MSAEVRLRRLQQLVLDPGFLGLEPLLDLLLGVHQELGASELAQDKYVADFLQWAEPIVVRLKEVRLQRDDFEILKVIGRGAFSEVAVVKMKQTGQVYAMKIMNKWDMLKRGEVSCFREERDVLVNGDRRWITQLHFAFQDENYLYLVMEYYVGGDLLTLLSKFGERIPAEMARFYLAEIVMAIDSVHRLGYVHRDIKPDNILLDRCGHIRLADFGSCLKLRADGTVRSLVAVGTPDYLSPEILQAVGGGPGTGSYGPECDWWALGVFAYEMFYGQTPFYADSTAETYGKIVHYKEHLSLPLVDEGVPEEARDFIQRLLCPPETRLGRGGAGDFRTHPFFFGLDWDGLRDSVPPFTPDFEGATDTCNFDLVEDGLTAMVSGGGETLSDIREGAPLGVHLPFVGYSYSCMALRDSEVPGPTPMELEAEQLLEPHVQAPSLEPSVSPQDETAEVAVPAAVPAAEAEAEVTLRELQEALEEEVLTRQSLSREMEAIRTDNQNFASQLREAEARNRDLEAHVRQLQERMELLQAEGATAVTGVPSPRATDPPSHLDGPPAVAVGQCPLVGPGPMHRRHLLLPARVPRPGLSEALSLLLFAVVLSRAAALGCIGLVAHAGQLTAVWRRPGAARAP
# [8] = target: Mitogen-activated protein kinase 11 (Homo sapiens, UniProt Q15759)
# Chain of Mitogen-activated protein kinase 11 (Q15759 whole entry): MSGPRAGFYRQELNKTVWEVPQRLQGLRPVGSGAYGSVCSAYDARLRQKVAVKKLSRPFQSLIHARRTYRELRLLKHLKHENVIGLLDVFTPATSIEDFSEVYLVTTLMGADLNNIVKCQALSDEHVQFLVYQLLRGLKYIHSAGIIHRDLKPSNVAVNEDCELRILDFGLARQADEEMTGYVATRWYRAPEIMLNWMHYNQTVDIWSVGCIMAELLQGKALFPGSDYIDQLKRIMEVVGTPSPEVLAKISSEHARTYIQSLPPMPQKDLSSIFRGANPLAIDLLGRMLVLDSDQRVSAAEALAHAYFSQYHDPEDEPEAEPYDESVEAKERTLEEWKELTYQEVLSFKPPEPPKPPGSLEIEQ
# [9] = target: T3, 3-phosphoinositide-dependent protein kinase 1 (Homo sapiens) (UniProt O15530)
# T3 sequence (whole entry): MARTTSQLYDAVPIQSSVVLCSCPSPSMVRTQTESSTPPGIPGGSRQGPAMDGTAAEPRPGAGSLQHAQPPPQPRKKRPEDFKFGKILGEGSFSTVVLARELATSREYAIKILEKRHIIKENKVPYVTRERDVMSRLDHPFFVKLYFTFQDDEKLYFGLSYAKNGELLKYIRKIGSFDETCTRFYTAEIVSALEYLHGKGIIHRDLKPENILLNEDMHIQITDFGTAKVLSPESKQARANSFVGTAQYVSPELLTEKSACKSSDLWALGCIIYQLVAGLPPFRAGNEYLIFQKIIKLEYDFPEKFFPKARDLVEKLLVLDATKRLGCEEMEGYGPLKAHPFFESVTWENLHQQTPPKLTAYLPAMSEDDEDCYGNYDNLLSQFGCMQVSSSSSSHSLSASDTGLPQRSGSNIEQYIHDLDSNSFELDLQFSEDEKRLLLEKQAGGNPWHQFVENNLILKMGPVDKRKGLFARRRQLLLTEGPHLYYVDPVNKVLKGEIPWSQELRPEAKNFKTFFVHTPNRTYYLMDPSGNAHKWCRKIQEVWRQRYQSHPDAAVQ
# [10] = target: Serine/threonine-protein kinase pim-2 (Homo sapiens, UniProt Q9P1W9)
# [11] = target: Serine/threonine-protein kinase pim-3 (Homo sapiens) (UniProt Q86V86)
# [12] = target: Serine/threonine-protein kinase PLK1 (Homo sapiens) (UniProt P53350)
# Chain of Serine/threonine-protein kinase PLK1 (Homo sapiens) (P53350 whole entry): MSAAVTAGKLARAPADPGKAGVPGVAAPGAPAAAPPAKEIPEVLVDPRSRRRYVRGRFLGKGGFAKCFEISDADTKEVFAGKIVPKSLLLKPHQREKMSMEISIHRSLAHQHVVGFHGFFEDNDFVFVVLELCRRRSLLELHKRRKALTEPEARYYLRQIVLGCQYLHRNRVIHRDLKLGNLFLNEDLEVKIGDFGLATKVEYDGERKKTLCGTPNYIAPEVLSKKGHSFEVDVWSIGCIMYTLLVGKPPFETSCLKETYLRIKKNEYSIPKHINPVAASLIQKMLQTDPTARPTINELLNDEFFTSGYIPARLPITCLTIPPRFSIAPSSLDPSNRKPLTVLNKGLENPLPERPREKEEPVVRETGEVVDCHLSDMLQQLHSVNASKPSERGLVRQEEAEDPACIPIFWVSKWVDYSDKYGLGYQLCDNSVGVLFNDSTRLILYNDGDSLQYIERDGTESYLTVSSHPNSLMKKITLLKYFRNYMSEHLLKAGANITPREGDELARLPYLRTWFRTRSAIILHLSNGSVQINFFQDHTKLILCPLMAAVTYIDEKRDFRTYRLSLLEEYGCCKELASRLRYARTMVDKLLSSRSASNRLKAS
# [13] = target: Serine/threonine-protein kinase RIO2 (Homo sapiens) (UniProt Q9BVS4)
# Chain of Serine/threonine-protein kinase RIO2 (Homo sapiens) (Q9BVS4 whole entry, looked up): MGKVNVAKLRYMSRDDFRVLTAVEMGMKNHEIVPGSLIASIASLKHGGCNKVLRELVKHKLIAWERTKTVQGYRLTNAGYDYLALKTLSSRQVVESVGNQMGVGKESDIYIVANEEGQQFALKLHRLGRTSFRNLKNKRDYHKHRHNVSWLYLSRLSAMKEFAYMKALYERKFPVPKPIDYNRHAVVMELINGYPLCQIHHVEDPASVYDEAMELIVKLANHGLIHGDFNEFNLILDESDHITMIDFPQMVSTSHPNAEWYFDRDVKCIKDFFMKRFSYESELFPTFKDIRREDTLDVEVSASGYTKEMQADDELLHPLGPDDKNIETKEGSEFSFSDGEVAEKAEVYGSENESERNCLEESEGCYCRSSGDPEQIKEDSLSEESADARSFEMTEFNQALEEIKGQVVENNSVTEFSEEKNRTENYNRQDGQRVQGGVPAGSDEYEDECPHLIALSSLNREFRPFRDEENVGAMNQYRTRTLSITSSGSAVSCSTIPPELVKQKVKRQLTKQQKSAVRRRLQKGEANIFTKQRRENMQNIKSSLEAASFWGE
# [14] = target: Ribosomal protein S6 kinase alpha-3 (Homo sapiens) (UniProt P51812)
# [15] = target: Serine/threonine-protein kinase 16 (Homo sapiens) (UniProt O75716)
# [16] = target: TRAF2 and NCK-interacting protein kinase (Homo sapiens) (UniProt Q9UKE5)
# Chain of TRAF2 and NCK-interacting protein kinase (Homo sapiens) (Q9UKE5 whole entry, looked up): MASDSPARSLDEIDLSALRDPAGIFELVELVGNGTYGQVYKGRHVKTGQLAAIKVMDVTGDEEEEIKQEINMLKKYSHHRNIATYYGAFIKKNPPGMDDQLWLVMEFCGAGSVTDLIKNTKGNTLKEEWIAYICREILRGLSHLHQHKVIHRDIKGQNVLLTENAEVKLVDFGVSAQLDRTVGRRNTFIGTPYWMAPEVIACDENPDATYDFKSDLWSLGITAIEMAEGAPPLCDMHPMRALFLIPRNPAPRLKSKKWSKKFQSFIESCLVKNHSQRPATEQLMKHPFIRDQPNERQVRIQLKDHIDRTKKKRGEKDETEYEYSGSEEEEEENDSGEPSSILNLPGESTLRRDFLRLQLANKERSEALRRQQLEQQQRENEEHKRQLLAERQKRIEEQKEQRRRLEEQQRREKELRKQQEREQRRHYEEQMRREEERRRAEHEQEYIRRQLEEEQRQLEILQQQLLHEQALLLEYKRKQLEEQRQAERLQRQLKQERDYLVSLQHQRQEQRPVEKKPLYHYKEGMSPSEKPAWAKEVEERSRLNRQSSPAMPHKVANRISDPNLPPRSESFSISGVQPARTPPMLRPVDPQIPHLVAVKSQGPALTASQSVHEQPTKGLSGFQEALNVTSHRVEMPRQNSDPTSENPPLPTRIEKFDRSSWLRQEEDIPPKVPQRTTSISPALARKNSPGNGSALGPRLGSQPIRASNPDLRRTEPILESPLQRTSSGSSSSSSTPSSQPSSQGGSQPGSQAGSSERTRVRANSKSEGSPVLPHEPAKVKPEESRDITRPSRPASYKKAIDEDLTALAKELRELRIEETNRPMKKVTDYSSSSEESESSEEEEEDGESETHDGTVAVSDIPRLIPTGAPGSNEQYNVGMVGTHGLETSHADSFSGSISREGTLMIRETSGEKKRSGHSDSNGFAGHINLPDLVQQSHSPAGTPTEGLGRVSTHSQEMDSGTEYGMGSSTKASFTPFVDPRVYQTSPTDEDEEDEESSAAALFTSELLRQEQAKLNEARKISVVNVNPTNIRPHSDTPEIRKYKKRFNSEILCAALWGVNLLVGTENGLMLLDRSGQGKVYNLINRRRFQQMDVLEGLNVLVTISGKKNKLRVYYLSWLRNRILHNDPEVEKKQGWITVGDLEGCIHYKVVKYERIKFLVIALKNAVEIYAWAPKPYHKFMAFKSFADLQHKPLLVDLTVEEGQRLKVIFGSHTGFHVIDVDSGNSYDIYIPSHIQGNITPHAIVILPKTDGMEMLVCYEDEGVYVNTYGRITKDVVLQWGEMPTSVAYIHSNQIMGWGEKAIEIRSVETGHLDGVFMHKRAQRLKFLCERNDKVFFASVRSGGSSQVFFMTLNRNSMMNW
# [17] = target: T4, Lymphokine-activated killer T-cell-originated protein kinase (Homo sapiens) (UniProt Q96KB5)
# T4 sequence (whole entry): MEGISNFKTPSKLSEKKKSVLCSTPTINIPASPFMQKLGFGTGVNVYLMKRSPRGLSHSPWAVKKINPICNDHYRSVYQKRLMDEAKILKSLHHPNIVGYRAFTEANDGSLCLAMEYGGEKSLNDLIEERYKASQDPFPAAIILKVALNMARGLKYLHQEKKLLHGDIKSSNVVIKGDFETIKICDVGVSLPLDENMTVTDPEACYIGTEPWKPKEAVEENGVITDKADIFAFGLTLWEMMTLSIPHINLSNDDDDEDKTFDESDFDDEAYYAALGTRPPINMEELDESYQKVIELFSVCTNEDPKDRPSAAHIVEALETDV
# [18] = target: Serine/threonine-protein kinase 25 (Homo sapiens) (UniProt O00506)
# Chain of Serine/threonine-protein kinase 25 (Homo sapiens) (O00506 whole entry, looked up): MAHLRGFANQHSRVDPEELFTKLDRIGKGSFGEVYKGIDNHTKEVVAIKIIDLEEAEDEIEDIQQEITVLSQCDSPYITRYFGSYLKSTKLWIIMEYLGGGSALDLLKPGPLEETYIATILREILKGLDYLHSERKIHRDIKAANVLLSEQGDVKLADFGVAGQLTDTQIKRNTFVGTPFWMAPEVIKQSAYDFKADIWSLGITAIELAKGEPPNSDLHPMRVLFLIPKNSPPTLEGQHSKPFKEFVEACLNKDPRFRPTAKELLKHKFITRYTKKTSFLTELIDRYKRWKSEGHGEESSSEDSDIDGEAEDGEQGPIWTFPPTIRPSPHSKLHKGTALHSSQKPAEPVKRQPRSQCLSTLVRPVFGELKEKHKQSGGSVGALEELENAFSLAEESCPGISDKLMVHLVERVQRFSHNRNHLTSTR
# Chain of Calcium/calmodulin-dependent protein kinase type 1G (Homo sapiens) (Q96NX5 whole entry): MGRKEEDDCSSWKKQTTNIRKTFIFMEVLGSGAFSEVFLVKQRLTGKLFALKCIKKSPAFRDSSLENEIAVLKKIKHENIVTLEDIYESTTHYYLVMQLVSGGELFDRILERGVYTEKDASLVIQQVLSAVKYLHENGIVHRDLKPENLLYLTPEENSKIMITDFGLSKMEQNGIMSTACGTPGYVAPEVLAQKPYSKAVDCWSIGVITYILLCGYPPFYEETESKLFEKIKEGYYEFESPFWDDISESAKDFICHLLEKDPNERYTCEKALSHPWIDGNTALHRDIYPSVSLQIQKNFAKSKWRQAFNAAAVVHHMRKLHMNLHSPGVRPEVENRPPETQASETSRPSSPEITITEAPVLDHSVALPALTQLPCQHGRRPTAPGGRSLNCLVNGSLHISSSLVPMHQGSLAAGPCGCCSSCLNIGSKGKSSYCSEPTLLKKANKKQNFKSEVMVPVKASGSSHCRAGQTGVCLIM
# Chain of Calcium/calmodulin-dependent protein kinase type II subunit alpha (Homo sapiens) (Q9UQM7 whole entry): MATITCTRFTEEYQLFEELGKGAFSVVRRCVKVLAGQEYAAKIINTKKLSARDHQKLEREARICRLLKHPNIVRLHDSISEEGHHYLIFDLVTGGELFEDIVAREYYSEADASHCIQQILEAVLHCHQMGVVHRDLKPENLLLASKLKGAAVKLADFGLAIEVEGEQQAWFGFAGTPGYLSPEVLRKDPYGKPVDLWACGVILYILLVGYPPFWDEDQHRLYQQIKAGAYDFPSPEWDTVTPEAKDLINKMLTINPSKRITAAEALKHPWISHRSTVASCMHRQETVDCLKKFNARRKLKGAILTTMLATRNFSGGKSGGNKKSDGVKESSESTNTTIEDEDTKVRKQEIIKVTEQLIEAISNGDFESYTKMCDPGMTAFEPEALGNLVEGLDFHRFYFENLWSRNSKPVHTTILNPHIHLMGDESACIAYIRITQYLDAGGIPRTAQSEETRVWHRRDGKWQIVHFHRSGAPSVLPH
Structure (SMILES),ΔTm [1],ΔTm [2],ΔTm [3],ΔTm [4],ΔTm [5],ΔTm [6],ΔTm [7],ΔTm [8],ΔTm [9],ΔTm [10],ΔTm [11],ΔTm [12],ΔTm [13],ΔTm [14],ΔTm [15],ΔTm [16],ΔTm [17],ΔTm [18]
COc1cc(OC)c(/C=C2\C(=O)Nc3ccccc32)c(OC)c1,0 °C,-0.1 °C,-0.3 °C,0 °C,-0.1 °C,-0.7 °C,0.2 °C,0.6 °C,-0.1 °C,0.5 °C,1 °C,-0.7 °C,-0.2 °C,-0.2 °C,0.2 °C,0.8 °C,0.5 °C,0.1 °C
N#C/C(=C(/N)Sc1ccc(N)cc1)c1ccccc1C(F)(F)F,0.2 °C,0.6 °C,0.1 °C,0.1 °C,0.5 °C,0.3 °C,0.3 °C,0 °C,-0.1 °C,0.2 °C,0.8 °C,-0.2 °C,-0.2 °C,0 °C,0.2 °C,-0.1 °C,-0.4 °C,0 °C
C=CNC#N,0.4 °C,0.7 °C,0.7 °C,0.5 °C,0.9 °C,0.1 °C,1.3 °C,-0.1 °C,-0.1 °C,0.3 °C,1 °C,0.1 °C,0 °C,0 °C,0 °C,0.1 °C,-1.1 °C,0.4 °C
CN(C)S(=O)(=O)c1ccc2c(c1)/C(=C/c1cc3c([nH]1)CCCC3)C(=O)N2,0.2 °C,3 °C,3.2 °C,1.2 °C,2.6 °C,4.7 °C,-0.3 °C,1.1 °C,0.4 °C,0.4 °C,1.7 °C,0.1 °C,-6.4 °C,7.5 °C,0.3 °C,4.2 °C,1 °C,5.3 °C
N#CC(C#N)=Cc1ccc(O)c(O)c1 [TYRPHOSTIN 23],0 °C,0.2 °C,0.4 °C,-0.1 °C,0.4 °C,0.7 °C,0 °C,0.3 °C,0.2 °C,1 °C,1.6 °C,0.4 °C,1.5 °C,0.2 °C,0.4 °C,0.2 °C,0.4 °C,-0.2 °C
CC(C)(C)n1nc(-c2cccc3ccccc23)c2c(N)ncnc21,-0.3 °C,0.3 °C,-0.1 °C,0.2 °C,-0.1 °C,0.3 °C,2.5 °C,2.9 °C,-0.4 °C,-0.2 °C,0.7 °C,0 °C,0.4 °C,2.4 °C,0.7 °C,4.5 °C,0.5 °C,1.3 °C
COc1ccc2c(c[n+](C)c3c4cc5c(cc4ccc23)OCO5)c1OC [CHELERYTHRINE CHLORIDE],-1.1 °C,0.6 °C,-0.8 °C,-0.2 °C,-0.6 °C,-3.9 °C,1.7 °C,0.6 °C,-0.7 °C,-3.1 °C,-0.9 °C,0 °C,-0.4 °C,-1.3 °C,-0.4 °C,-1.3 °C,-0.4 °C,-0.3 °C
Cc1ccc(NC(=O)c2cccc(N(C)C)c2)cc1NC(=O)c1ccc(O)cc1,0.4 °C,0.1 °C,0 °C,0.1 °C,0 °C,0.9 °C,-0.8 °C,4.1 °C,-0.4 °C,0 °C,0.6 °C,0.9 °C,0.2 °C,0.2 °C,0.5 °C,0.1 °C,0.4 °C,-0.3 °C
O=C1NC(=O)c2c1c1c3ccccc3n3c1c1c2c2ccccc2n1C1CCC3O1,-0.2 °C,-0.4 °C,-0.2 °C,0 °C,-0.2 °C,3.9 °C,6.8 °C,-0.1 °C,-0.1 °C,5.5 °C,7.3 °C,4 °C,-0.2 °C,0 °C,1.7 °C,7.6 °C,-0.3 °C,2.1 °C
Cl.Cn1cc(C2=C(c3ccc4cc5n(c4c3)CCC(CN)C5)C(=O)NC2=O)c2ccccc21 (stereo not drawn),0.3 °C,1.4 °C,-0.5 °C,1.1 °C,0.1 °C,1 °C,6 °C,-0.1 °C,0 °C,3.1 °C,4.7 °C,0.1 °C,-0.2 °C,6 °C,1.2 °C,0.3 °C,-0.6 °C,0.7 °C
C[C@@H]1C[C@H]2O[C@@H]2/C=C\C=C\C(=O)Cc2c(Cl)c(O)cc(O)c2C(=O)O1 [RADICICOL],0.6 °C,0 °C,-0.4 °C,0 °C,-0.1 °C,1.6 °C,-0.9 °C,0.7 °C,0.2 °C,0.1 °C,0.5 °C,0.2 °C,-0.5 °C,0.2 °C,0.3 °C,-0.3 °C,0.2 °C,-0.6 °C
